Reference: paper PMC6478789, “A chemical toolbox for the study of bromodomains and epigenetic signaling” (Nature Communications, 2019)
Like-named read-outs stand apart in the source and are kept apart here.

How the values were obtained:
BRD1 = target: T1, BRD1 (Homo sapiens, UniProt O95696); assay: BROMOscan ligand-binding assay
T1 sequence (O95696 562-666 limits assumed): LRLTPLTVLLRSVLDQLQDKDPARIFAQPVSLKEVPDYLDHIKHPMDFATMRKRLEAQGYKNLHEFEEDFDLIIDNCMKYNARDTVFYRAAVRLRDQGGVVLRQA
Source text: (§1) BROMOscan is a binding assay based on the well-known KINOMEscan technology. This assay measures the binding of a DNA-tagged bromodomain to an immobilized BRD ligand. If an inhibitor is present, it will compete with the bromodomain binding to the immobilized ligand, resulting in reduction of a quantitative PCR (qPCR) signal in a dose-dependent manner.

HAT1 = target: T2, HAT1 (Homo sapiens, UniProt O14929); assay: Histone acetyltransferase (HAT) activity assay; type: biochemical; details: for activity at 1 µM / activity at 10 µM: read-out: HATs Activity (%);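 for all read-outs here: HAT selectivity screen of BRD probe compounds, enzyme activity in % measured with compound at 1 µM and 10 µM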
T2 sequence (O14929 1-419): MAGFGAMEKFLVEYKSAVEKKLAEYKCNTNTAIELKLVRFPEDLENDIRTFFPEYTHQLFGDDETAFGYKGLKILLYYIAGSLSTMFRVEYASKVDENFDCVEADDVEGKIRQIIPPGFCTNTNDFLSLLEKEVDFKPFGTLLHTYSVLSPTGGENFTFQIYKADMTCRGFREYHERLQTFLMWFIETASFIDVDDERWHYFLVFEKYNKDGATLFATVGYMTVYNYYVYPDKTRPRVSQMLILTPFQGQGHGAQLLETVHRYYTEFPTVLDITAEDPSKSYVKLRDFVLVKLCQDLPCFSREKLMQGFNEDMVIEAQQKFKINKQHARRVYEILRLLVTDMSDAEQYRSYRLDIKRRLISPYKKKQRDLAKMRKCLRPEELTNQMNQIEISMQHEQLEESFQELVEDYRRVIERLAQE

GCN5L2 = GCN5L2 (Homo sapiens, UniProt Q92830); assay: Histone acetyltransferase (HAT) activity assay; type: biochemical; details: for activity at 1 µM / activity at 10 µM: read-out: HATs Activity (%);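 for all read-outs here: selectivity screen of BRD probe compounds across a panel of histone acetyltransferases, HAT activity in % with compound at 1 or 10 µM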
BAZ2B = target: T3, BAZ2B (Homo sapiens, UniProt Q9UIF8); assay: BROMOscan ligand-binding assay
T3 sequence (Q9UIF8 2060-2164 limits assumed): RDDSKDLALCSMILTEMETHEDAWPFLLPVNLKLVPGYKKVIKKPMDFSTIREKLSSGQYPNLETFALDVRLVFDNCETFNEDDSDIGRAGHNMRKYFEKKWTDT
Source text: as §1

MYST3 = MYST3 (Homo sapiens, UniProt Q92794); assay: Histone acetyltransferase (HAT) activity assay; type: biochemical; details: for activity at 1 µM / activity at 10 µM: read-out: HATs Activity (%);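 for all read-outs here: selectivity screen of bromodomain probe compounds across a panel of histone acetyltransferases, read out as enzyme activity in %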
BRD7 = target: T4, BRD7 (Homo sapiens, UniProt Q9NPI1); assay: BROMOscan ligand-binding assay
T4 sequence (Q9NPI1 131-235 limits assumed): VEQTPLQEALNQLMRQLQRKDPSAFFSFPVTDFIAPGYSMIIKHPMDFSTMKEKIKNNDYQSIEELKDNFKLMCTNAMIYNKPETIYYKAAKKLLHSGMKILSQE
Source text: as §1

BRD9 = target: T5, BRD9 (Homo sapiens, UniProt Q9H8M2); assay: BROMOscan ligand-binding assay
T5 sequence (Q9H8M2 136-240 limits assumed): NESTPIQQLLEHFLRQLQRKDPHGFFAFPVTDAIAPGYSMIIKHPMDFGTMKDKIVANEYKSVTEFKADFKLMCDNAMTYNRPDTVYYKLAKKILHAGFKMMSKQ
Source text: as §1

MYST1 = target: T6, MYST1 (Homo sapiens, UniProt Q9H7Z6); assay: Histone acetyltransferase (HAT) activity assay; type: biochemical; details: for activity at 1 µM / activity at 10 µM: read-out: HATs Activity (%);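 for all read-outs here: selectivity screen across a panel of histone acetyltransferases, with compounds tested at 1 and 10 µM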
T6 sequence (Q9H7Z6 1-458): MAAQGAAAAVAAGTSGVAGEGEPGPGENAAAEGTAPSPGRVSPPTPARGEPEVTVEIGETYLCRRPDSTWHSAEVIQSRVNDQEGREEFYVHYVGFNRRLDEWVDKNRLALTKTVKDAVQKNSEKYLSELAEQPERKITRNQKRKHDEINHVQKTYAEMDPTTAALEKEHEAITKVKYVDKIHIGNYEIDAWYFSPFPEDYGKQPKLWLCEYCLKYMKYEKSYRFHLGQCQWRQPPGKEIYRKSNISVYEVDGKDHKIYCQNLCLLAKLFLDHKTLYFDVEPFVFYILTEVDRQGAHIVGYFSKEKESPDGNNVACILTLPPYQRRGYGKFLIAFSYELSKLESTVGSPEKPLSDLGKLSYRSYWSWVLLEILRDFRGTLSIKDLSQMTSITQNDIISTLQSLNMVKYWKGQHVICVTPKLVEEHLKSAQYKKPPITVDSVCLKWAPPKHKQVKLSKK

BRDT(2) = BRDT(2) (Homo sapiens, UniProt Q58F21); assay: BROMOscan ligand-binding assay
Source text: as §1

TRIM24 = target: T7, TRIM24 (Homo sapiens, UniProt O15164); assay: BROMOscan ligand-binding assay
T7 sequence (O15164 899-1004 limits assumed): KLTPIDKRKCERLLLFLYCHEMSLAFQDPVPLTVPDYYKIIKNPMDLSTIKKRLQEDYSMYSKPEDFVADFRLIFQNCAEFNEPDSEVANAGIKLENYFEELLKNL
Source text: as §1

EP300 = EP300 (Homo sapiens, UniProt Q09472); assay: Histone acetyltransferase (HAT) activity assay; type: biochemical; details: for activity at 1 µM / activity at 10 µM: read-out: HATs Activity (%);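 for all read-outs here: selectivity screen of bromodomain probe compounds against histone acetyltransferases, with enzyme activity given in percent for compounds tested at 1 and 10 µM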
BRDT(1,2) = BRDT(1,2) (Homo sapiens, UniProt Q58F21); assay: BROMOscan ligand-binding assay
Source text: as §1

BRD8(2) = BRD8(2) (Homo sapiens, UniProt Q9H0E9); assay: BROMOscan ligand-binding assay
Source text: as §1

ATAD2A = target: T8, ATAD2A (Homo sapiens, UniProt Q6PL18); assay: BROMOscan ligand-binding assay
T8 sequence (Q6PL18 980-1092 limits assumed): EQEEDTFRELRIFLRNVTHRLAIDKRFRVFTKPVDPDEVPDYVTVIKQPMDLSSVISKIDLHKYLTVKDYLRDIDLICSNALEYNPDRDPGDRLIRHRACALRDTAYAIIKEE
Source text: as §1

CREBBP = CREBBP (Homo sapiens, UniProt Q92793); assay: BROMOscan ligand-binding assay
Source text: as §1

BRDT(1) = BRDT(1) (Homo sapiens, UniProt Q58F21); assay: BROMOscan ligand-binding assay
Source text: as §1

BRPF3 = target: T9, BRPF3 (Homo sapiens, UniProt Q9ULD4); assay: BROMOscan ligand-binding assay
T9 sequence (Q9ULD4 589-693 limits assumed): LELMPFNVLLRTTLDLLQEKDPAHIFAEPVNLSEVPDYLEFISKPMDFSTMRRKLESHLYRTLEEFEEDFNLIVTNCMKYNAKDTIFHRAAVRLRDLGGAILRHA
Source text: as §1

[1] = KD (BROMOscan), sheet prints no unit (nM)

Chain of GCN5L2 (Q92830 whole entry, species assumed): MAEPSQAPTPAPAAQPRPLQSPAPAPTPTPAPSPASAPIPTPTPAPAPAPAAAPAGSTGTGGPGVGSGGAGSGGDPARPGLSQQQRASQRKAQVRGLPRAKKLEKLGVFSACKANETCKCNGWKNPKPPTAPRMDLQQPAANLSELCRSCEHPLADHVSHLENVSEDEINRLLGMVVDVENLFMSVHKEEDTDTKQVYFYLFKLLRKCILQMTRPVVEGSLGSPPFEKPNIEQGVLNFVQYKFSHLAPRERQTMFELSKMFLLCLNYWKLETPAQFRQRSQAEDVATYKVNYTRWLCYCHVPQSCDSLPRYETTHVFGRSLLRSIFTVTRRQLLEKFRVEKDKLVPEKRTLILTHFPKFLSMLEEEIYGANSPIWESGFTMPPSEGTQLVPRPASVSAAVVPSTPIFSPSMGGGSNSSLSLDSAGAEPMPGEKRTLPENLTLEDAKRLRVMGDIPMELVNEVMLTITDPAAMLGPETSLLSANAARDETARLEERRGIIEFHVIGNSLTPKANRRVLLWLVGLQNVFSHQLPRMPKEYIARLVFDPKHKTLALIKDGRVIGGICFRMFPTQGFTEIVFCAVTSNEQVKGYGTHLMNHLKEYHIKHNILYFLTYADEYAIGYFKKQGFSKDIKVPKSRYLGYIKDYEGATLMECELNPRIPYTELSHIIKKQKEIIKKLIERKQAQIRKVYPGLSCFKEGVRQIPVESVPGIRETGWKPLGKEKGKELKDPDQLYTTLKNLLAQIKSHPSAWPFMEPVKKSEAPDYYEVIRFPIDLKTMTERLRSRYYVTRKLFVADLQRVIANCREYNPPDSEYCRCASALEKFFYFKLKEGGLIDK
Chain of BRD8(2) (Q9H0E9 1099-1207 limits assumed): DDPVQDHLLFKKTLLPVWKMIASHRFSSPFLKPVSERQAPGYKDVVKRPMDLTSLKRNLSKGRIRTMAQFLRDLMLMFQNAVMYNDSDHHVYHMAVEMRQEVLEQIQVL
Chain of CREBBP (Q92793 1085-1192 limits assumed): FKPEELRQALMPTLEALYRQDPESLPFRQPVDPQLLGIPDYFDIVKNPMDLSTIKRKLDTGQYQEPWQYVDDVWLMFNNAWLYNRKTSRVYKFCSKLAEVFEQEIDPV
Chain of MYST3 (Q92794 whole entry, species assumed): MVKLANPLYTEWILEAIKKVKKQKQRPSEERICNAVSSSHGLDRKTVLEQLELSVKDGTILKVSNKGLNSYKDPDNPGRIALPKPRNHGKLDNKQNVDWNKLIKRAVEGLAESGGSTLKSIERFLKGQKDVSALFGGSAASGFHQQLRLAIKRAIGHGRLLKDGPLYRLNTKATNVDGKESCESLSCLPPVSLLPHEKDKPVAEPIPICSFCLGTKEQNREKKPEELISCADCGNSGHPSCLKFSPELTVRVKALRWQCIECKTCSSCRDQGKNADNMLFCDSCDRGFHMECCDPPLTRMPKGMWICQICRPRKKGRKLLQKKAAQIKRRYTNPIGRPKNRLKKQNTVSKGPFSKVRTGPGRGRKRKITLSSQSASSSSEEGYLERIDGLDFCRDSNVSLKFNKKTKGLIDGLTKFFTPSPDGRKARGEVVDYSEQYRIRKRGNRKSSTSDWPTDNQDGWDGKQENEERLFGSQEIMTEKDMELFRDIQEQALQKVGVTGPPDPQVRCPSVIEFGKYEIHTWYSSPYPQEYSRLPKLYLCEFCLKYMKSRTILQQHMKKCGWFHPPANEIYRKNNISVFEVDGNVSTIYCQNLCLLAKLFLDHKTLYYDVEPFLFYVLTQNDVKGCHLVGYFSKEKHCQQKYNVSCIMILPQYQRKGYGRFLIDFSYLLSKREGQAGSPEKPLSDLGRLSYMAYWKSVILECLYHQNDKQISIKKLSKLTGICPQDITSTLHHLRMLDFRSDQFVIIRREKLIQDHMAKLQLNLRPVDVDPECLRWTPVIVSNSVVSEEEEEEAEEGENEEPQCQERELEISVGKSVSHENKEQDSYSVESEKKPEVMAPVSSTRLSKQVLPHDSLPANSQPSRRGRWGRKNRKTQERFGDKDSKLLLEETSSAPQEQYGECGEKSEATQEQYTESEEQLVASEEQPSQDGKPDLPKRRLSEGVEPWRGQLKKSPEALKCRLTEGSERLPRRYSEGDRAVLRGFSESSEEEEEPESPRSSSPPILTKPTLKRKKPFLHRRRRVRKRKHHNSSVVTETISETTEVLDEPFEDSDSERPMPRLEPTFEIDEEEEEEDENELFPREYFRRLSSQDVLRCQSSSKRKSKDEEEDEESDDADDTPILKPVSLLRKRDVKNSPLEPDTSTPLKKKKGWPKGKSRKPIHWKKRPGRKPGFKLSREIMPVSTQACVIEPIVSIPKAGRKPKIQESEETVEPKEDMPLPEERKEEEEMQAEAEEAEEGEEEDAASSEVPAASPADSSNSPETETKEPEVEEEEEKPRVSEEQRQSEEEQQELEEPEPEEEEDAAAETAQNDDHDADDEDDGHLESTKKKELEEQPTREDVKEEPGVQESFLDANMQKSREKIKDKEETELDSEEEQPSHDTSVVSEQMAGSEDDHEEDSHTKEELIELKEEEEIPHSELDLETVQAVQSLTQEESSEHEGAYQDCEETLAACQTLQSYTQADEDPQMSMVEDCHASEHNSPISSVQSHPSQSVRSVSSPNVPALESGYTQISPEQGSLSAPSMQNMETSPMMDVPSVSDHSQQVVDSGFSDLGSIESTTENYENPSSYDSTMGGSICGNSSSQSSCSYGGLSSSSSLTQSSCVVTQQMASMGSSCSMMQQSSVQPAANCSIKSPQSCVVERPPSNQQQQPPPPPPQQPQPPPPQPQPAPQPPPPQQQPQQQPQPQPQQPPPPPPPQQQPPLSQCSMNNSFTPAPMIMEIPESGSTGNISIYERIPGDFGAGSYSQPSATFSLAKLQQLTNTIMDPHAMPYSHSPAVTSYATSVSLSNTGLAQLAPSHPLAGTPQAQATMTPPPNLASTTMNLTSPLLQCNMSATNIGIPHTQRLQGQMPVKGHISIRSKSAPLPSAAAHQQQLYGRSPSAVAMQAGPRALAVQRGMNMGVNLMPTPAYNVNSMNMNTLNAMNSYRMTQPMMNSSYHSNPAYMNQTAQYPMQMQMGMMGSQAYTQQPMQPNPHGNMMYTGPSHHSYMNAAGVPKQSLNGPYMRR

## COc1cc2c(cc1NS(=O)(=O)c1ccc(Br)cc1C)n(C)c(=O)n2C [OF-1]
BRD1; BRD1
  Kd: 0.36 µM
HAT1; 1µM
  HATs Activity (%): 92%
HAT1; 10µM
  HATs Activity (%): 93%
GCN5L2; 1µM
  HATs Activity (%): 98%
GCN5L2; 10µM
  HATs Activity (%): 93%
BAZ2B; BAZ2B
  Kd: 2500 nM
MYST3; 1µM
  HATs Activity (%): 100%
MYST3; 10µM
  HATs Activity (%): 102%
BRD7; BRD7
  Kd: 1000 nM
BRD9; BRD9
  Kd: 2900 nM
MYST1; 1µM
  HATs Activity (%): 102%
MYST1; 10µM
  HATs Activity (%): 94%
BRDT(2); BRDT(2)
  Kd: 22000 nM
TRIM24; TRIM24(Bromo.)
  Kd: 1900 nM
EP300; 1µM
  HATs Activity (%): 100%
EP300; 10µM
  HATs Activity (%): 103%
BRDT(1,2); BRDT(1,2)
  Kd: 11000 nM
BRD8(2); BRD8(2)
  Kd: > 50000 nM
BRD8(2); read-out: KD (BROMOscan), sheet prints no unit (nM)
  Kd: > 30000 nM
ATAD2A; ATAD2A
  Kd: > 50000 nM
CREBBP; CREBBP
  Kd: 45000 nM
BRDT(1); BRDT(1)
  Kd: 3500 nM

## O=C(C=CN1[C@H]2CC[C@@H]1c1ncnc(NC3CC3)c1C2)c1ccccc1O [PFI-3 D1]
BRD1; BROMOscan, BRD1
  Kd: > 30 µM
BAZ2B; BROMOscan, BAZ2B
  Kd: > 30000 nM
BRD7; BROMOscan, BRD7
  Kd: > 30000 nM
BRD9; BROMOscan, BRD9
  Kd: > 30000 nM
BRDT(2); BROMOscan, BRDT(2)
  Kd: > 30000 nM
TRIM24; BROMOscan, TRIM24(Bromo.)
  Kd: > 30000 nM
BRDT(1,2); BROMOscan, BRDT(1,2)
  Kd: > 30000 nM
BRD8(2); BROMOscan, BRD8(2)
  Kd: > 30000 nM
BRPF3; BROMOscan, BRPF3
  Kd: > 30000 nM
ATAD2A; BROMOscan, ATAD2A
  Kd: > 30000 nM
CREBBP; BROMOscan, CREBBP
  Kd: > 30000 nM
BRDT(1); BROMOscan, BRDT(1)
  Kd: 24000 nM

## O=C(C=CN1CC2CC1CN2c1ccccn1)c1ccccc1O (stereo not shown) [PFI-3]
HAT1; 1µM
  activity at 1 µM: 96%
HAT1; 10µM
  activity at 10 µM: 94%
GCN5L2; 1µM
  activity at 1 µM: 99%
GCN5L2; 10µM
  activity at 10 µM: 101%
BAZ2B; [1]
  Kd: > 30000 nM
BAZ2B; KD, BAZ2B
  Kd: > 100000 nM
MYST3; 1µM
  activity at 1 µM: 95%
MYST3; 10µM
  activity at 10 µM: 96%
BRD7; [1]
  Kd: > 30000 nM
BRD7; KD, BRD7
  Kd: > 100000 nM
BRD9; [1]
  Kd: > 30000 nM
BRD9; KD, BRD9
  Kd: > 100000 nM
MYST1; 1µM
  activity at 1 µM: 99%
MYST1; 10µM
  activity at 10 µM: 99%
BRDT(2); [1]
  Kd: > 30000 nM
BRDT(2); KD, BRDT(2)
  Kd: > 100000 nM
TRIM24; [1]
  Kd: > 30000 nM
TRIM24; KD, TRIM24(Bromo.)
  Kd: > 100000 nM
EP300; 1µM
  activity at 1 µM: 98%
EP300; 10µM
  activity at 10 µM: 97%
BRDT(1,2); [1]
  Kd: > 30000 nM
BRDT(1,2); KD, BRDT(1,2)
  Kd: > 100000 nM
BRD8(2); [1]
  Kd: > 30000 nM
BRD8(2); KD, BRD8(2)
  Kd: > 100000 nM
BRPF3; [1]
  Kd: > 30000 nM
BRPF3; KD, BRPF3
  Kd: > 100000 nM
ATAD2A; [1]
  Kd: > 30000 nM
ATAD2A; KD, ATAD2A
  Kd: > 100000 nM
CREBBP; [1]
  Kd: > 30000 nM
CREBBP; KD, CREBBP
  Kd: > 100000 nM
BRDT(1); [1]
  Kd: > 30000 nM
BRDT(1); KD, BRDT(1)
  Kd: > 100000 nM

## COc1ccc(CCc2nc3cc(-c4c(C)noc4C)ccc3n2C[C@H](C)N2CCOCC2)cc1Cl [SGC-CBP30]
BRD1
  Kd: 21 µM
HAT1; 1µM
  activity at 1 µM: 96%
HAT1; 10µM
  activity at 10 µM: 97%
GCN5L2; 1µM
  activity at 1 µM: 101%
GCN5L2; 10µM
  activity at 10 µM: 101%
BAZ2B; [1]
  Kd: > 30000 nM
BAZ2B; KD, BROMOscan, BAZ2B
  Kd: > 100000 nM
MYST3; 1µM
  activity at 1 µM: 103%
MYST3; 10µM
  activity at 10 µM: 103%
BRD7; KD, BROMOscan, BRD7
  Kd: 39000 nM
BRD9; KD, BROMOscan, BRD9
  Kd: 6100 nM
MYST1; 1µM
  activity at 1 µM: 103%
MYST1; 10µM
  activity at 10 µM: 97%
BRDT(2); [1]
  Kd: > 30000 nM
BRDT(2); KD, BROMOscan, BRDT(2)
  Kd: > 100000 nM
TRIM24; KD, BROMOscan, TRIM24(Bromo.)
  Kd: 12000 nM
EP300; 1µM
  activity at 1 µM: 98%
EP300; 10µM
  activity at 10 µM: 92%
BRDT(1,2); KD, BROMOscan, BRDT(1,2)
  Kd: 3100 nM
BRD8(2); [1]
  Kd: > 30000 nM
BRD8(2); KD, BROMOscan, BRD8(2)
  Kd: > 100000 nM
BRPF3; [1]
  Kd: > 30000 nM
BRPF3; KD, BROMOscan, BRPF3
  Kd: > 100000 nM
ATAD2A; [1]
  Kd: > 30000 nM
ATAD2A; KD, BROMOscan, ATAD2A
  Kd: > 100000 nM
BRDT(1); KD, BROMOscan, BRDT(1)
  Kd: 2600 nM

## O=C(O)c1ccccc1O [Salicylic Acid]
BRD1
  Kd: > 14000 µM
BAZ2B; KD, BAZ2B
  Kd: > 1.4e+07 nM
BRD7; KD, BRD7
  Kd: > 1.4e+07 nM
BRD9; KD, BRD9
  Kd: > 1.4e+07 nM
BRDT(2); KD, BRDT(2)
  Kd: > 1.4e+07 nM
TRIM24; KD, TRIM24(Bromo.)
  Kd: > 1.4e+07 nM
BRDT(1,2); KD, BRDT(1,2)
  Kd: 6.1e+06 nM
BRD8(2); KD, BRD8(2)
  Kd: > 1.4e+07 nM
BRPF3; KD, BRPF3
  Kd: > 1.4e+07 nM
CREBBP; KD, CREBBP
  Kd: > 1.4e+07 nM
BRDT(1); KD, BRDT(1)
  Kd: > 1.4e+07 nM
